{"source": "patent US7553821B2", "about": "“Methods for selectively modulating survivin apoptosis pathways” (Yale University, priority 2000, dated 2009)", "test_system": "YUSAC-2 melanoma cells", "assay": "Apoptosis in Tet-regulated YUSAC-2 transfectants (DNA content, TUNEL, caspase-9 Western blot)", "assay_type": "cell-based, human", "details": "for G2/M and apoptotic (sub-G1) DNA content after transgene induction: stably transfected YUSAC-2 lines, Tet withdrawn (transgene expressed)", "method": "Three YUSAC-2 melanoma cell lines stably transfected with survivin(T34A) in pTet splice were analyzed for DNA content by propidium iodide staining and flow cytometry in the presence (Tet+) or absence (Tet−) of Tet. The percentages of cells with sub-G1 (apoptotic) DNA content after a 3-d culture at 37° C. are indicated.\nThe experimental conditions are the same as in A, except that a subclone of YUSAC-2 transfectants, F5.C4 was analyzed in the presence (Tet+) or in the absence (Tet−) of Tet for internucleosomal DNA fragmentation by end-labeling with terminal deoxynucleotidyl transferase (TdT) and a peroxidase-conjugated anti-digoxigenin antibody.\nTet+ and Tet− F5.C4 cells characterized as described in FIG. 4, were harvested at the indicated time intervals after thymidine release and immunoblotted with an antibody to caspase-9. TNF+CHX, extract of HeLa cells treated with 10 ng/ml TNFα plus 10 μg/ml cycloheximide. Arrows, position of ˜46 kDa proform caspase-9, and ˜35 kDa and ˜37 kDa active caspase-9 bands.\nCells were then fixed, permeabilized and stained with propidium iodide for DNA content as described (Grossman et al., 1999). The marker indicates the sub-G1 fraction, corresponding to apoptotic cells.\nCells were fixed in 1% paraformaldehyde for 10 minutes at room temperature and then permeabilized with acetic acid and ethanol for 5 minutes at […]. Arrows indicate TUNEL-reactive (Shockett et al., 1995) cells with apoptotic morphology.\nTransfection experiments. For transient transfection, HeLa cells in C-6 tissue culture plates (Costar, Cambridge, Mass.) at ˜60-70% confluency, were incubated in 1 ml of serum-free OptiMEM medium (Life Technologies, Gaithersburg, Md.) for 20 min, and transfected with 2.5 μg of the various plasmid cDNAs plus 9 μl Lipofectamine (Life Technologies). After a 5 h incubation at 37° C., the mixture was aspirated and substituted with complete growth medium for 48-72 h. To generate stable YUSAC-2 transfectants, a survivin(T34A) cDNA was inserted into the HindIII-SpeI sites of the pTet-splice vector (Dr. D. Schatz, Yale University School of Medicine), downstream of the regulatory sequences of the Tet-resistance operon (TetO). YUSAC-2 cells were transfected with 0.8 μg pTet-T34A, 0.8 μg of the transactivation/selection plasmid ptTA-Neo and 5 μl Lipofectamine in 1 ml of OptiMem. Forty-eight h after transfection, cells were re-plated at low density in 15×150 mm plates in growth medium containing 1.5 mg/ml Geneticin (G418, Life Technologies), 2 mM sodium hydroxide and 0.5 μg/ml Tet (Sigma, St. Louis, Mo.) (selection medium). […] Gated GFP-expressing cells were analyzed for DNA content by flow cytometry on a FACSort (Becton Dickinson, San Jose, Calif.) using a Cell Quest software. […]", "data": [{"substance": "survivin(T34A): dominant-negative, non-phosphorylatable survivin mutant with Thr34→Ala substitution, expressed from transfected cDNA (also HA- or GFP-tagged)", "values": [{"measurement": "internucleosomal DNA fragmentation by TUNEL", "setting": "F5.C4 cells, Tet-deprived", "value": "stained intensely for internucleosomal DNA fragmentation by TUNEL"}, {"measurement": "caspase-9 processing by Western blotting", "setting": "cell cycle synchronized Tet− F5.C4 cells after thymidine release", "value": "time-dependent cleavage of 46 kDa proform caspase-9 and generation of ˜35 kDa and ˜37 kDa active caspase-9 bands"}, {"measurement": "G2/M and apoptotic (sub-G1) DNA content after transgene induction", "value": "nearly complete loss of mitotic (G2/M) cells, and appearance of a prominent population with apoptotic (sub-G1) DNA content"}, {"measurement": "G2/M and apoptotic (sub-G1) DNA content after transgene induction", "setting": "listed as Thr^34→Ala mutant", "value": "progressive time-dependent loss of mitotic (G2/M) cells and coincident accumulation of apoptotic cells"}]}]}
